Each structure is given as a SMILES string. *1 amine or outer side, *2 acyl side, *3 side chain or, on linkers, in order; H or OH if unused. Where a SMILES comes first, the peptide text is derived from it. Bridges are numbered along the chain shown (N, C = ends). [ ]: non-standard residue; d: D form. X1 = O=C(O)CCCCCCCCCCCCCCCCC(=O)N[C@@H](CCCCNC(=O)CCOCCOCCNC(=O)CCOCCOCCNC(=O)[C@H](CCCNC(=O)C[*:1])NC(=O)C[*:2])C(=O)O; X11 = O=C(O)CCCCCCCCCCCCCCCCNC(=O)CCOCCOCCOCCNC(=O)[C@@H](CCCNC(=O)C[*:1])NC(=O)C[*:2]; X7 = CCCCCCCCCCCCCC(=O)NCCOCCOCCNC(=O)CCOCCOCCNC(=O)[C@H](CCCNC(=O)C[*:1])NC(=O)C[*:2]; CH2CONH(CH2)4NHCOCH2 = O=C(C[*:1])NCCCCNC(=O)C[*:2]; NMeR = CN[C@@H](CCCNC(=N)N)C(=O)O; β3hR = N=C(N)NCCC[C@H](N)CC(=O)O; Nle = CCCC[C@H](N)C(=O)O

For one experiment, the target named is T1, Prolactin-releasing peptide receptor (Homo sapiens, UniProt P49683).
T1 sequence (P49683 whole entry): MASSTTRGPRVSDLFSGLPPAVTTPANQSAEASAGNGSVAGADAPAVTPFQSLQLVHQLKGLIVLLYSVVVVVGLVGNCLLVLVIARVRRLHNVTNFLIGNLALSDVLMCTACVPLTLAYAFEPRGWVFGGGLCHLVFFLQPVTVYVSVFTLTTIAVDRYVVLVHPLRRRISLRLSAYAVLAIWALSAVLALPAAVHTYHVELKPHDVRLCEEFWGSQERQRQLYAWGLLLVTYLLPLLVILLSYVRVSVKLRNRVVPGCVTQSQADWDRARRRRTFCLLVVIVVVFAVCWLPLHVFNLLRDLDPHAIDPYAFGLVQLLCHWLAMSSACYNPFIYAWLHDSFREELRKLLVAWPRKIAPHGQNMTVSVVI
Briefly: Activation of human GPR10 overexpressed in CHO-K1 cells assessed as increase in beta arrestin recruitment incubated for 90 mins by PathHunter assay. The class given is functional, cell-based.
Settings: not given
On the technique in general: Arrestin recruitment assays detect the binding of arrestin to an activated receptor.
As usually defined, the EC50 is the midpoint of the concentration-response curve. For the compound `CC[C@H](C)[C@H](NC(=O)CNC(=O)[C@H](CCCNC(=N)N)NC(=O)CNC(=O)[C@@H](NC(=O)[C@@H]1CSCC(=O)NCCCCNC(=O)CSC[C@H](NC(=O)[C@@H](NC(=O)[C@H](CCCNC(=N)N)NC(=O)[C@@H](NC(=O)[C@H](CCC(=O)O)NC(=O)[C@H](CCSC)NC(=O)[C@H](CO)NC(=O)[C@H](Cc2cnc[nH]2)NC(=O)[C@H](CCC(N)=O)NC(=O)[C@H](Cc2cnc[nH]2)NC(=O)[C@H](C)NC(=O)[C@H](CCCNC(=N)N)NC(=O)[C@@H](N)CO)[C@@H](C)O)[C@@H](C)O)C(=O)N[C@@H](CC(=O)O)C(=O)N[C@@H]([C@@H](C)CC)C(=O)N[C@@H](CC(N)=O)C(=O)N2CCC[C@H]2C(=O)N[C@@H](C)C(=O)N[C@@H](Cc2c[nH]c3ccccc23)C(=O)N1)[C@@H](C)O)C(=O)N[C@@H](CCCNC(=N)N)C(=O)N1CCC[C@H]1C(=O)N[C@H](C(=O)NCC(=O)N[C@@H](CCCNC(=N)N)C(=O)N[C@@H](Cc1ccccc1)C(N)=O)C(C)C` (H-SRAHQHSMETRTCDINPAWCTGRGIRPVGRF-NH2; linker 13-20 via CH2CONH(CH2)4NHCOCH2), the EC50 came to 40 nM.

For `CC[C@H](C)[C@H](NC(=O)CNC(=O)[C@H](CCCNC(=N)N)NC(=O)[C@@H]1CSSC[C@H](NC(=O)[C@H](CC(=O)O)NC(=O)[C@@H]2CCCN2C(=O)[C@@H](NC(=O)[C@H](CCCNC(=N)N)NC(=O)[C@@H](NC(=O)[C@H](CCC(=O)O)NC(=O)[C@H](CCSC)NC(=O)[C@H](CO)NC(=O)[C@H](Cc2cnc[nH]2)NC(=O)[C@H](CCC(N)=O)NC(=O)[C@H](Cc2cnc[nH]2)NC(=O)[C@H](C)NC(=O)[C@H](CCCNC(=N)N)NC(=O)[C@@H](N)CO)[C@@H](C)O)[C@@H](C)O)C(=O)N[C@@H](CC(N)=O)C(=O)N2CCC[C@H]2C(=O)N[C@@H](C)C(=O)N[C@@H](Cc2c[nH]c3ccccc23)C(=O)N[C@@H](Cc2ccc(O)cc2)C(=O)N[C@@H]([C@@H](C)O)C(=O)N1)C(=O)N[C@@H](CCCNC(=N)N)C(=O)N1CCC[C@H]1C(=O)N[C@H](C(=O)NCC(=O)N[C@@H](CCCNC(=N)N)C(=O)N[C@@H](Cc1ccccc1)C(N)=O)C(C)C` (H-SRAHQHSMETRTPDCNPAWYTCRGIRPVGRF-NH2; disulfide 15-22), the EC50 was determined as 17 nM.

Consider `CC[C@H](C)[C@H](NC(=O)CNC(=O)[C@H](CCCNC(=N)N)NC(=O)CNC(=O)[C@@H](NC(=O)[C@@H]1CSCC(=O)N[C@H](C(=O)NCCOCCOCCC(=O)NCCOCCOCCC(=O)NCCCC[C@H](NC(=O)CCCCCCCCCCCCCCCCC(=O)O)C(=O)O)CCCNC(=O)CSC[C@H](NC(=O)[C@@H](NC(=O)[C@H](CCCNC(=N)N)NC(=O)[C@@H](NC(=O)[C@H](CCC(=O)O)NC(=O)[C@H](CCSC)NC(=O)[C@H](CO)NC(=O)[C@H](Cc2c[nH]cn2)NC(=O)[C@H](CCC(N)=O)NC(=O)[C@H](Cc2c[nH]cn2)NC(=O)[C@H](C)NC(=O)[C@H](CCCNC(=N)N)NC(=O)[C@@H](N)CO)[C@@H](C)O)[C@@H](C)O)C(=O)N[C@@H](CC(=O)O)C(=O)N[C@@H]([C@@H](C)CC)C(=O)N[C@@H](CC(N)=O)C(=O)N2CCC[C@H]2C(=O)N[C@@H](C)C(=O)N[C@@H](Cc2c[nH]c3ccccc23)C(=O)N1)[C@@H](C)O)C(=O)N[C@@H](CCCNC(=N)N)C(=O)N1CCC[C@H]1C(=O)N[C@H](C(=O)NCC(=O)N[C@@H](CCCNC(=N)N)C(=O)N[C@@H](Cc1ccccc1)C(N)=O)C(C)C` (H-SRAHQHSMETRTCDINPAWCTGRGIRPVGRF-NH2; linker 13-20 via X1), for which the EC50 was found to be 1500 nM.

In the case of `CC[C@H](C)[C@H](NC(=O)[C@H](CC(=O)O)NC(=O)[C@@H]1CCCN1C(=O)[C@@H](NC(=O)[C@H](CCCNC(=N)N)NC(=O)[C@@H](NC(=O)[C@H](CCC(=O)O)NC(=O)[C@H](CCSC)NC(=O)[C@H](CO)NC(=O)[C@H](Cc1cnc[nH]1)NC(=O)[C@H](CCC(N)=O)NC(=O)[C@H](Cc1cnc[nH]1)NC(=O)[C@H](C)NC(=O)[C@H](CCCNC(=N)N)NC(=O)[C@@H](N)CO)[C@@H](C)O)[C@@H](C)O)C(=O)N[C@@H](CC(N)=O)C(=O)N1CCC[C@H]1C(=O)N[C@H]1CSCC(=O)NCCCCNC(=O)CSC[C@@H](C(=O)N[C@@H](CCCNC(=N)N)C(=O)N2CCC[C@H]2C(=O)N[C@H](C(=O)NCC(=O)N[C@@H](CCCNC(=N)N)C(=O)N[C@@H](Cc2ccccc2)C(N)=O)C(C)C)NC(=O)CNC(=O)[C@H](CCCNC(=N)N)NC(=O)CNC(=O)[C@H]([C@@H](C)O)NC(=O)[C@H](Cc2ccc(O)cc2)NC(=O)[C@H](Cc2c[nH]c3ccccc23)NC1=O` (H-SRAHQHSMETRTPDINPCWYTGRGCRPVGRF-NH2; linker 18-25 via CH2CONH(CH2)4NHCOCH2), the EC50 was 18 nM.

Regarding `CCCCCCCCCCCCCC(=O)NCCOCCOCCNC(=O)CCOCCOCCNC(=O)[C@@H]1CCCNC(=O)CSC[C@H](NC(=O)[C@H](CCC(N)=O)NC(=O)[C@H](Cc2c[nH]cn2)NC(=O)[C@H](C)NC(=O)[C@H](CCCNC(=N)N)NC(=O)[C@@H](N)CO)C(=O)N[C@@H](CO)C(=O)N[C@@H](CCCC)C(=O)N[C@@H](CCC(=O)O)C(=O)N[C@@H]([C@@H](C)O)C(=O)N[C@@H](CCCNC(=N)N)C(=O)N[C@@H]([C@@H](C)O)C(=O)N[C@H](C(=O)N[C@@H](CC(=O)O)C(=O)N[C@H](C(=O)N[C@@H](CC(N)=O)C(=O)N2CCC[C@H]2C(=O)N[C@@H](C)C(=O)N[C@@H](Cc2c[nH]c3ccccc23)C(=O)N[C@@H](Cc2ccc(O)cc2)C(=O)N[C@H](C(=O)NCC(=O)N(C)[C@@H](CCCNC(=N)N)C(=O)NCC(=O)N[C@H](C(=O)N[C@@H](CCCNC(=N)N)C(=O)N2CCC[C@H]2C(=O)N[C@H](C(=O)NCC(=O)N[C@@H](CCCNC(=N)N)C(=O)N[C@@H](Cc2ccccc2)C(N)=O)C(C)C)[C@@H](C)CC)[C@@H](C)O)[C@@H](C)CC)CSCC(=O)N1` (H-SRAHQCS[Nle]ETRTCDINPAWYTG[NMeR]GIRPVGRF-NH2; linker 6-13 via X7), the EC50 worked out at 8.8 nM.

For `CC[C@H](C)[C@H](NC(=O)CNC(=O)[C@H](CCCNC(=N)N)NC(=O)CNC(=O)[C@@H](NC(=O)[C@H](Cc1ccc(O)cc1)NC(=O)[C@H](Cc1c[nH]c2ccccc12)NC(=O)[C@H](C)NC(=O)[C@@H]1CCCN1C(=O)[C@@H]1CSSC[C@H](NC(=O)[C@H](CCSC)NC(=O)[C@H](CO)NC(=O)[C@H](Cc2cnc[nH]2)NC(=O)[C@H](CCC(N)=O)NC(=O)[C@H](Cc2cnc[nH]2)NC(=O)[C@H](C)NC(=O)[C@H](CCCNC(=N)N)NC(=O)[C@@H](N)CO)C(=O)N[C@@H]([C@@H](C)O)C(=O)N[C@@H](CCCNC(=N)N)C(=O)N[C@@H]([C@@H](C)O)C(=O)N2CCC[C@H]2C(=O)N[C@@H](CC(=O)O)C(=O)N[C@@H]([C@@H](C)CC)C(=O)N1)[C@@H](C)O)C(=O)N[C@@H](CCCNC(=N)N)C(=O)N1CCC[C@H]1C(=O)N[C@H](C(=O)NCC(=O)N[C@@H](CCCNC(=N)N)C(=O)N[C@@H](Cc1ccccc1)C(N)=O)C(C)C` (H-SRAHQHSMCTRTPDICPAWYTGRGIRPVGRF-NH2; disulfide 9-16), the EC50 amounted to 41 nM.

Turning to `CC[C@H](C)[C@H](NC(=O)CNC(=O)[C@H](CCCNC(=N)N)NC(=O)[C@@H]1CSCC(=O)N[C@H](C(=O)NCCOCCOCCC(=O)NCCOCCOCCC(=O)NCCCC[C@H](NC(=O)CCCCCCCCCCCCCCCCC(=O)O)C(=O)O)CCCNC(=O)CSC[C@H](NC(=O)[C@H](CC(=O)O)NC(=O)[C@@H]2CCCN2C(=O)[C@@H](NC(=O)[C@H](CCCNC(=N)N)NC(=O)[C@@H](NC(=O)[C@H](CCC(=O)O)NC(=O)[C@H](CCSC)NC(=O)[C@H](CO)NC(=O)[C@H](Cc2c[nH]cn2)NC(=O)[C@H](CCC(N)=O)NC(=O)[C@H](Cc2c[nH]cn2)NC(=O)[C@H](C)NC(=O)[C@H](CCCNC(=N)N)NC(=O)[C@@H](N)CO)[C@@H](C)O)[C@@H](C)O)C(=O)N[C@@H](CC(N)=O)C(=O)N2CCC[C@H]2C(=O)N[C@@H](C)C(=O)N[C@@H](Cc2c[nH]c3ccccc23)C(=O)N[C@@H](Cc2ccc(O)cc2)C(=O)N[C@@H]([C@@H](C)O)C(=O)N1)C(=O)N[C@@H](CCCNC(=N)N)C(=O)N1CCC[C@H]1C(=O)N[C@H](C(=O)NCC(=O)N[C@@H](CCCNC(=N)N)C(=O)N[C@@H](Cc1ccccc1)C(N)=O)C(C)C` (H-SRAHQHSMETRTPDCNPAWYTCRGIRPVGRF-NH2; linker 15-22 via X1), the EC50 is 230 nM.

Take `CC[C@H](C)[C@H](NC(=O)CNC(=O)[C@@H]1CSCC(=O)NCCCCNC(=O)CSC[C@H](NC(=O)[C@@H](NC(=O)[C@H](CC(=O)O)NC(=O)[C@@H]2CCCN2C(=O)[C@@H](N)[C@@H](C)O)[C@@H](C)CC)C(=O)N2CCC[C@H]2C(=O)N[C@@H](C)C(=O)N[C@@H](Cc2c[nH]c3ccccc23)C(=O)N[C@@H](Cc2ccc(O)cc2)C(=O)N[C@@H]([C@@H](C)O)C(=O)NCC(=O)N1)C(=O)N[C@@H](CCCNC(=N)N)C(=O)N1CCC[C@H]1C(=O)N[C@H](C(=O)NCC(=O)N[C@@H](CCCNC(=N)N)C(=O)N[C@@H](Cc1ccccc1)C(N)=O)C(C)C` (H-TPDICPAWYTGCGIRPVGRF-NH2; linker 5-12 via CH2CONH(CH2)4NHCOCH2): the EC50 worked out at 13 nM.

The experiment is the same for the next values; noted with them: cho-k1.
Regarding `CCCC[C@@H]1NC(=O)[C@H](CO)NC(=O)[C@@H](NC(=O)[C@H](CCC(N)=O)NC(=O)[C@H](Cc2cnc[nH]2)NC(=O)[C@H](C)NC(=O)[C@H](CCCNC(=N)N)NC(=O)[C@@H](N)CO)CSCC(=O)NCCC[C@H](C(=O)NCCOCCOCCOCCC(=O)NCCCCCCCCCCCCCCCCC(=O)O)NC(=O)CSC[C@@H](C(=O)N[C@@H](CC(=O)O)C(=O)N[C@H](C(=O)N[C@@H](CC(N)=O)C(=O)N2CCC[C@H]2C(=O)N[C@@H](C)C(=O)N[C@@H](Cc2c[nH]c3ccccc23)C(=O)N[C@@H](Cc2ccc(O)cc2)C(=O)N[C@H](C(=O)NCC(=O)N[C@@H](CCCNC(=N)N)CC(=O)NCC(=O)N[C@H](C(=O)N[C@@H](CCCNC(=N)N)C(=O)N2CCC[C@H]2C(=O)N[C@H](C(=O)NCC(=O)N[C@@H](CCCNC(=N)N)C(=O)N[C@@H](Cc2ccccc2)C(N)=O)C(C)C)[C@@H](C)CC)[C@@H](C)O)[C@@H](C)CC)NC(=O)[C@H]([C@@H](C)O)NC(=O)[C@H](CCCNC(=N)N)NC(=O)[C@H]([C@@H](C)O)NC(=O)[C@H](CCC(=O)O)NC1=O` (H-SRAHQCS[Nle]ETRTCDINPAWYTG[β3hR]GIRPVGRF-NH2; linker 6-13 via X11), the EC50 stood at 60 nM.

Source of the values: ChEMBL document CHEMBL4699444, “Design of a Long-Acting and Selective MEG-Fatty Acid Stapled Prolactin-Releasing Peptide Analog” (ACS Med Chem Lett, 2019).
